Source: patent US20040122209A1, “Products for regulating the degradation of collagen and methods for identifying same” (Shriners Hospital For Children, priority 2002, published 2004)
No end group written: not given here.

Legend:
Format in all cases: cell-based
ERK1/2 = assay: Western immunoblot for phosphorylated ERK1/2 in human chondrocytes; settings: at 15 min; inhibitors added before peptide
Procedure: To detect activation of MAP kinases (ERK1/2, p38 MAPK, and JNK1/2), first-passaged chondrocytes plated onto 10-cm culture dishes were incubated with CB12-II (SP), USP, TNF-α, native human type II collagen, human fibronectin, and antibodies to α2β1 and α5β1 for 5-60 min. In some experiments, chondrocytes were precultured with U0126 (inhibitor of phosphorylation of MEK1/2, up-stream kinase molecule of ERK1/2) at 1 μM for 1 h, SB203580 (inhibitor of phosphorylation of p38 MAPK) at 1 μM for 1 h, Herbimycin A (tyrosine kinase inhibitor) at 1 μg/ml for overnight, Wortmannin (PI3 kinase inhibitor) at 100 nM for 1 h, and Cytochalasin D (focal adhesion inhibitor) at 3 μM for 30 or 60 min before adding peptides.
After a variable but designated incubation time, chondrocytes were washed twice with ice cold PBS and lysed in RIPA buffer (10 mM Tris/HCl, pH 7.4, 0.1% SDS, 1% NP-40, 0.1% sodium deoxycholate, 150 mM NaCl, 1 mM EDTA) containing freshly added proteinase and phosphatase inhibitors (1 mM PMSF, 10 μg/ml leupeptin, 1 μg/ml aprotinin, 1 mM Na3VO4, 1 mM NaF). Cell lysate was centrifuged and supernatant was collected. Protein concentration was determined using Bradford's method. Equal amounts of protein were separated on 10% SDS-polyacrylamide gels under reducing conditions and were electrotransferred to a nitrocellulose membrane (Bio-Rad). To block nonspecific binding, the membranes were incubated in PBS containing 5% non-fat milk overnight at 4° C. The membranes were then probed with rabbit antibodies against phosphorylated ERK1/2, p38, and JNK1/2 (New England BioLabs). Antibodies were diluted 1:1000 in PBS containing 0.5% non-fat milk and reacted with the membrane for 1 h at room temperature. Blots were washed with PBS containing 0.1% Tween-20 three times, and incubated for 1 h at room temperature with horseradish peroxidase (HRP)-conjugated goat anti-rabbit IgG (New England BioLabs) diluted 1:2000 with PBS-0.1% Tween 20 for ECL system (Amersham). Then, the membranes were washed with PBS-Tween, and the membranes were detected with the addition of a 1:1 dilution of the ECL detection reagents (Amersham) 1 and 2 for 1 min. The solution was removed, and the membranes were wrapped in plastic wrap and exposed to film for various amounts of time.
First-passaged confluent human chondrocytes were treated with CB12-II (SP) (10 μM), USP (10 μM), anti-α2β1and α5β1 antibodies, anti-integrin α2β1 blocking antibody, and IL-1β or TNF-α. Cell lysates were immunoblotted using antibody that detects phosphorylated p-ERK1I/2 or p-MEK. In some experiments, U0126 at 10 μM, a specific inhibitor of an upstream molecule, MEK1/2, that activates ERK1/2, and SB203580 at 10 μM, that inhibits p38 MAPK activity, were added to the culture 1 h before peptides, antibodies, and cytokines. Herbimycin A, cytochalasin D, and wortmannin were also used as inhibitors.

[1] = system: bovine articular cartilage explant; assay: Collagenase-cleaved type II collagen (COL2-3/4C) in bovine articular cartilage explant culture; settings: 1 and 10 μM, time- and dose-dependent
Procedure: (§1) The cartilages were prepared as previously described (Dahlberg, L. et al. (2000) supra. In brief, the cartilage samples were washed three times with basal culture medium containing Dulbecco's modified Eagle's medium (DMEM; Gibco BRL, Life Technologies, Grand Island, N.Y.) with 20 mM HEAPS buffer (pH 7.4) (Gibco BRL), 45 mM NaHCO3, 100 units/ml penicillin, 100 μg/ml streptomycin and 150 μg/ml gentamycin sulphate (Medium A). Full-depth cartilage slices from a single area, around 20 mm×20 mm were cut vertical to the articular surface and then into cubes of approximately 2 mm×2 mm (5-7 cubes were randomly obtained and wet weights about 50-70 mg/well determined).
(§2) The cartilage was assigned to 48 well plate (ca 40 mg/well) and kept in Medium A supplemented with 50 μg/ml ascorbic acid, 0.1 mg/bovine serum albumin, 50 μg/ml insulin, 5.0 μg/ml and 5.0 μg/ml sodium DMEM alone at 37° C. in 95% air/5% CO2. The cartilage was precultured for 2 days and medium was changed at day 0. Thereafter medium (as described in pellet cultures) was replaced every four days. Various CNBr fragments and/or synthetic peptides were freshly added from day 0 at each medium change. Thereafter, cartilage explants and conditioned media were harvested and stored at −20° C.
(§3) The cell pellets and cartilage explant cultured for various times were digested for the extraction of collagenase-generated neoepitope COL2-3/4Cshort (Billinghurst, R. C. et al., (1997) supra) and denatured type II collagen epitope COL2-3/4m and total type II collagen (Hollander, A. P. et al. (1994a) supra), as previously described: Briefly, the harvested pellets were incubated overnight with 1.0 mg/ml α-chymotrypsin at 37° C. to cleave and solubilize denatured collagen leaving the above neoepitope and epitope intact. After inhibition of α-chymotrypsin activity with N-tosyl-L-phenelalanine-chloromethyl ketone (Sigma), the samples were centrifuged and the supernatants were removed and boiled for 10 min. The COL2-3/4Cshort epitope (hereafter referred to as COL2-3/4Cshort) generated by cleavage of type II collagen by collagenase (Billinghurst, R. C. et al. (1997) supra) and intrachain epitope (COL2-3/4m) exposed in denatured type II collagen (Hollander, A. P. et al. (1994a) supra) were measured in α-chymotrypsin extracts by immunoassay. The COL2-3/4Cshort epitope is detected in an ELISA assay using a rabbit antibody to the carboxyterminal cleavage neoepitope on the TCA piece generated by primary collagenase cleavage of type II collagen. The release of the COL2-3/4C epitope into media was also measured by immunoassay. Total contents in tissue/cells and media was recorded for COL2-3/^4Cshort epitope. The COL2-3/4m epitope was recorded in cells and tissue where it was concentrated. The remaining residues of pellets and explants were digested overnight with 1.0 mg/ml proteinase K at 56° C. to extract the remaining intact type II collagen and then boiled for 10 min to denature the enzyme. Total type II collagen content in the pellets and explant was determined from the collective amount of COL2-3/4m in both the α-chymotrypsin and proteinase K digests.

[2] = system: bovine articular cartilage explant; assay: Proteoglycan (GAG) content and release in bovine explant culture; settings: subpeptides at 1 and 10 μM
Procedure: The cartilages were prepared as previously described (Dahlberg, L. et al. (2000) supra. In brief, the cartilage samples were washed three times with basal culture medium containing Dulbecco's modified Eagle's medium (DMEM; Gibco BRL, Life Technologies, Grand Island, N.Y.) with 20 mM HEAPS buffer (pH 7.4) (Gibco BRL), 45 mM NaHCO3, 100 units/ml penicillin, 100 μg/ml streptomycin and 150 μg/ml gentamycin sulphate (Medium A). Full-depth cartilage slices from a single area, around 20 mm×20 mm were cut vertical to the articular surface and then into cubes of approximately 2 mm×2 mm (5-7 cubes were randomly obtained and wet weights about 50-70 mg/well determined). The cartilage was assigned to 48 well plate (ca 40 mg/well) and kept in Medium A supplemented with 50 μg/ml ascorbic acid, 0.1 mg/bovine serum albumin, 50 μg/ml insulin, 5.0 μg/ml and 5.0 μg/ml sodium DMEM alone at 37° C. in 95% air/5% CO2. The cartilage was precultured for 2 days and medium was changed at day 0. Thereafter medium (as described in pellet cultures) was replaced every four days. Various CNBr fragments and/or synthetic peptides were freshly added from day 0 at each medium change. Thereafter, cartilage explants and conditioned media were harvested and stored at −20° C. In order to show the specificity of the peptide fragments of one embodiment on degradation of type II collagen as compared with proteoglycan, primarily aggrecan, sulphated glycosaminoglycan (GAG) content was determined in both the α-chymotrypsin and proteinase K digests for total proteoglycan (predominantly aggrecan) content in cell pellets, cartilage explants and also in conditioned media. Measurement of release of proteoglycan into media was tested using dimethylene blue dye binding as previously described (Dahlberg, L. et al. (2000) supra).

[3] = system: normal human adult articular cartilage explants; assay: Type II collagen cleavage by collagenase (COL2-3/4C) in human articular cartilage explant culture; settings: by day 16
Procedure: Human femoral chondylar cartilages were obtained at autopsy within 18 hours of death from adult persons with no known history of arthritis and no macroscopic signs of articular degeneration. None of the persons had diabetes or had received chemotherapy prior to autopsy. Adult bovine articular cartilage was obtained from adults/bovine steers and cows from metacarpalphalangeal joints obtained at the abbatoir immediately after slaughter. All cartilage specimens were removed immediately to the laboratory under sterile conditions.
as §1, §2, §3

MMP-1 = assay: ELISA for MMP-1 in conditioned medium of human chondrocytes; settings: 48 hours; CB12-II 50 μM, TNF-α 50 ng/ml
Procedure: (§4) First-passaged normal human chondrocytes isolated by the method described above and cultured at high density (2×10^5 cells/cm^2) were trypsinized and resuspended in Medium A containing 1% FCS at a density of 10^6 cells/ml. Then, 200 μl of the cell suspension was each plated onto round-bottomed 96-well culture plate. On the next day after plating, CB12-II at 50 μM, USP at 50 μM, and TNF-α at 50 ng/ml were added to the culture media, and the culture was maintained for 24-48 hours. Conditioned media were collected and subjected to ELISA assay. The ELISA kits (BIOTRAK) for MMP-1 and MMP-13 were purchased from Amersham Pharmacia Biotech (Piscataway, N.J.). Measurement range was 6.25-100 ng/ml for MMP-1 and 0.094-3 ng/ml for MMP-13. Sensitivity for the assay was 1.7 ng/ml for MMP-1 and 0.7 ng/ml for MMP-13.
(§5) Protein levels of MMP-1 and MMP-13 were also tested by incubating isolated human chondrocytes for 48 hours in high density culture (10^6 cells/ml) with CB12-II, negative control peptide USP, or cytokine TNF-α, as discussed above. MMP-1 and MMP-13 secretion into medium from the cells was measured using ELISA (see FIGS. 9A and 9B).

MMP-13 = assay: ELISA for MMP-13 in conditioned medium of human chondrocytes; settings: 48 hours; CB12-II 50 μM, TNF-α 50 ng/ml
Procedure: as §4, §5

Compound	inhibition of phosphorylation of ERK1/2 induced by CB12-II (ERK1/2)	effect of removal of hydroxylation at a single proline residue on activity of CB12-II (SP) [3]	other results
C=C1[C@@H](C)[C@H]2[C@H](Cc3ccccc3)NC(=O)[C@]23[C@H](OC(C)=O)/C=C/[C@@](C)(O)C(=O)[C@@H](C)C/C=C/[C@H]3[C@@H]1O [Cytochalasin D, reference compound]	inhibited		
CO[C@H]1[C@@H](OC)C[C@H](C)[C@@H](OC)C2=CC(=O)C=C(NC(=O)/C(C)=C/C=C\[C@H](OC)[C@@H](OC(N)=O)/C(C)=C/[C@@H]1C)C2=O [Herbimycin A, reference compound]	inhibited		
N#CC(=C(/N)Sc1ccccc1N)/C(C#N)=C(\N)Sc1ccccc1N [Peptide U0126, reference compound]	inhibited		
C[S+]([O-])c1ccc(-c2nc(-c3ccncc3)c(-c3ccc(F)cc3)[nH]2)cc1 (stereo not shown) [SB203580, reference compound]	not		
GEAGAPGVKGESGSPGQNGSPGPM (not fully specified) [CB12-IV, subpeptide of CB12; used as non-specific / negative control peptide (USP)]			induction of total collagenase cleavage of type II collagen by CB12 subpeptides [1]: less activity; proteoglycan breakdown [2]: no significant effect
GERGPP*GPQGARGFP*GTP*GLPGVK [SP21]		no effect on activity	
GERGPP*GPQGARGFP*GTPGLP*GVK [SP18]		reduced potency	
GERGPP*GPQGARGFPGTP*GLP*GVK [SP15]		reduced potency	
GERGPPGPQGARGFP*GTP*GLP*GVK [SP6]		no effect on activity	
GLPGVKGHRGYPGLDGAKGEAGAPG [CB12-III, subpeptide of the CB12 peptide of type II collagen]			induction of total collagenase cleavage of type II collagen by CB12 subpeptides [1]: less activity; proteoglycan breakdown [2]: no significant effect
GPRGPPGPPGKPGDDGEAGKPGKSGERGPPG [CB12-I, subpeptide of the CB12 peptide of type II collagen]			induction of total collagenase cleavage of type II collagen by CB12 subpeptides [1]: less activity; proteoglycan breakdown [2]: no significant effect
TNF-α			MMP-1 secretion into medium versus no peptide and negative control peptide (USP) (MMP-1): significantly higher; MMP-13 secretion into medium versus no peptide and negative control peptide (USP) (MMP-13): significantly higher
